Holding throughout (format): biochemical
The target in test [1] is T1, recombinant human DAO (diamine oxidase) (Homo sapiens, UniProt P19801).
T1 construct: purchased R&D systems
T1 sequence (P19801 20-751): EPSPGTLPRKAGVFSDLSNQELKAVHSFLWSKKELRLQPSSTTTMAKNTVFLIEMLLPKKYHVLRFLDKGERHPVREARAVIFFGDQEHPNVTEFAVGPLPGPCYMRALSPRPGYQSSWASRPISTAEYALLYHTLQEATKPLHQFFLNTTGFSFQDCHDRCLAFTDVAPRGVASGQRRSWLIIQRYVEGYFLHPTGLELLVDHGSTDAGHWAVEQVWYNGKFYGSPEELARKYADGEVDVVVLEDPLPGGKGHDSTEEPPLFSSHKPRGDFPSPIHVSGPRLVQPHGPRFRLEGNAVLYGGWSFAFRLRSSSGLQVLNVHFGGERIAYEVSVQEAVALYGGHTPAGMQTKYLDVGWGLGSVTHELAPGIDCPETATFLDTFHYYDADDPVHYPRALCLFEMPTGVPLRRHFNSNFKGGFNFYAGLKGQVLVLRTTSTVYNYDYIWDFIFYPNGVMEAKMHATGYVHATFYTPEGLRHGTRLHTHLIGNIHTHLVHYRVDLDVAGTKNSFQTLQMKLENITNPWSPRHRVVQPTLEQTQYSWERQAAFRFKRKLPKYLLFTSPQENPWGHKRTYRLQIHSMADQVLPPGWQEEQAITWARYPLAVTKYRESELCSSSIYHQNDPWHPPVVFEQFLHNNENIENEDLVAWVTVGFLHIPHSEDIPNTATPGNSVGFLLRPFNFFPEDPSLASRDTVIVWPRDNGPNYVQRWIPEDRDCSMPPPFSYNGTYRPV
The test is described as follows: Activity evaluation on recombinant human DAO (Amplex Red/HRP-coupled assay, 1 mM putrescine substrate). Conditions: read-out: Inhibitory Activity (IC50, nM) DAO. The method in brief: (§1)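 Compounds preincubated 30 min at 37 °C with enzyme in 50 mM sodium phosphate pH 7.4 (final DMSO <1%, 8-point 1:3 dilutions); reaction started with 200 uM Amplex Red, 1 U/mL HRP and substrate (MAO-A 0.5 mM tyramine, MAO-B 1 mM benzylamine, DAO 1 mM putrescine). Resorufin fluorescence (ex 544/em 590 nm) followed over 1-2 h; IC50 from four-parameter logistic fit.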

The target in test [2] is T2, recombinant human MAO-A (monoamine oxidase-A) (Homo sapiens, UniProt P21397).
T2 construct: purchased Sigma-Aldrich
T2 sequence (P21397 1-527): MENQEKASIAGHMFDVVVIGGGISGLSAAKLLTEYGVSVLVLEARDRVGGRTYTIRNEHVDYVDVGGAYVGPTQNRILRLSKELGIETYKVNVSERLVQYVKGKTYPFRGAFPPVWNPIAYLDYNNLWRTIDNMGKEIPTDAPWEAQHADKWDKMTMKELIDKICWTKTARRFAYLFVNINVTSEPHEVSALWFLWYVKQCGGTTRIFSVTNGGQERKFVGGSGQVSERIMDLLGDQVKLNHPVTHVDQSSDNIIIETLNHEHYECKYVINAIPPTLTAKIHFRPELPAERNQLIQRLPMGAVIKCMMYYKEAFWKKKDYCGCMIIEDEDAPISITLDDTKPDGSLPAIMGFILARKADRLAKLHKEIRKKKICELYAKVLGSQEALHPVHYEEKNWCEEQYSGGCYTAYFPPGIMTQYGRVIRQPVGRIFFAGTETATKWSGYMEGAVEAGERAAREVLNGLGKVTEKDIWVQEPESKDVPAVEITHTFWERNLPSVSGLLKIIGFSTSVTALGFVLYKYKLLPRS
Description: Activity evaluation on recombinant human MAO-A (Amplex Red/HRP-coupled assay, 0.5 mM tyramine substrate). Conditions: read-out: Inhibitory Activity (IC50, nM) MAO-A. The method in brief: as §1

A further test addresses T3, recombinant human VAP-1 (Homo sapiens, UniProt Q16853).
T3 construct: purchased R&D systems
T3 sequence (Q16853 1-763): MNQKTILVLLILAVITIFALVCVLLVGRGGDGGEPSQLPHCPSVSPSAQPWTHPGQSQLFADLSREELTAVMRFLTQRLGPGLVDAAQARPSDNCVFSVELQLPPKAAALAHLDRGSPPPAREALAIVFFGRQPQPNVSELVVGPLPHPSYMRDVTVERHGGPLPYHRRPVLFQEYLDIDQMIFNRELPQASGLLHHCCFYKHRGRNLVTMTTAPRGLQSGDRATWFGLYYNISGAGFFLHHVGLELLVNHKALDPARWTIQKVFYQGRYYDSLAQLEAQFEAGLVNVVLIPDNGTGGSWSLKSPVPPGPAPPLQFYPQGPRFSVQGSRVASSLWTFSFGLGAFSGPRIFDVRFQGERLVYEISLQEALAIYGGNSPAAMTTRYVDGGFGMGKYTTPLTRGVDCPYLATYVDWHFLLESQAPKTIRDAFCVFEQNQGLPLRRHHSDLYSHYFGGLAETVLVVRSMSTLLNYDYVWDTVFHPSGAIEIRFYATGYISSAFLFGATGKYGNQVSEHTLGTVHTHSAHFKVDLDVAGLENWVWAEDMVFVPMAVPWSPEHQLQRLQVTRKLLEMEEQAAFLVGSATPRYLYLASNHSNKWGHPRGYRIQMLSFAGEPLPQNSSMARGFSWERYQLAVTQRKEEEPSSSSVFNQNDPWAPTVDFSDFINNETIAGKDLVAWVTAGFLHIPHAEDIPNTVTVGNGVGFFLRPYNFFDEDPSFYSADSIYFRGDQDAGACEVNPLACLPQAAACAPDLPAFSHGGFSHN
Description: Activity evaluation on recombinant human VAP-1 (Amplex Red/HRP-coupled hydrogen peroxide assay, benzylamine substrate). Conditions: read-out: Inhibitory Activity (IC50, nM) human VAP-1. The method in brief: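 Recombinant human VAP-1 in 50 mM sodium phosphate pH 7.4 preincubated 30 min at 37 °C with compound (8-point 1:3 series, <1% DMSO), then 1 mM benzylamine, 200 uM Amplex Red, 1 U/mL HRP added. H2O2-derived resorufin fluorescence (ex 544/em 590) followed 1–2 h; IC50 from four-parameter fit of rate inhibition.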

For test [3], the target named is T4, recombinant human MAO-B (monoamine oxidase-B) (Homo sapiens, UniProt P27338).
T4 construct: purchased Sigma-Aldrich
T4 sequence (P27338 1-520): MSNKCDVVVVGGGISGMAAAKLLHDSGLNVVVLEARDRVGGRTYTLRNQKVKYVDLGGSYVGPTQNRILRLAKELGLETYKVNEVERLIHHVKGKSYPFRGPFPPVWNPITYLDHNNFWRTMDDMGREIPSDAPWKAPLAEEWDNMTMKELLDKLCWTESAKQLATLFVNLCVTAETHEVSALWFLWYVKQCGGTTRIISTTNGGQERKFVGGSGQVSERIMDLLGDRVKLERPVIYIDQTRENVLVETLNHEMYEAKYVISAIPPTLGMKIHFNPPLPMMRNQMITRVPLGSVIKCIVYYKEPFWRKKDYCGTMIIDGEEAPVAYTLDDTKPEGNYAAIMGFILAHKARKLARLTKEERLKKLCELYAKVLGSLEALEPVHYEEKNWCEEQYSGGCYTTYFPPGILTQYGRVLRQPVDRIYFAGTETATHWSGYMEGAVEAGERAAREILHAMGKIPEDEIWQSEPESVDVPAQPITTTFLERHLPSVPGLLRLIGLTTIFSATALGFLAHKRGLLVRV
Description: Activity evaluation on recombinant human MAO-B (Amplex Red/HRP-coupled assay, 1 mM benzylamine substrate). Conditions: read-out: Inhibitory Activity (IC50, nM) MAO-B. In short, it runs like this: as §1

Setting [4] is: recombinant human VAP-1, benzylamine substrate.
Setting [5] is: recombinant human VAP-1, 30 min preincubation at 37° C., 1 mM benzylamine.

From patent US11168073B2, “3,3-difluoroallylamines or salts thereof and pharmaceutical compositions comprising the same” (YUHAN CORPORATION, priority 2018, dated 2021) come the findings set out here.

The structures appear in SMILES notation. Counter-ions that a name gives are not always drawn. Like-named read-outs stand apart in the source and are kept apart here.

`Cc1cc(-c2ccc3cn[nH]c3c2)cnc1-n1cnn(CC(CN)=C(F)F)c1=O` [Example 233, 2-[2-(aminomethyl)-3,3-difluoro-allyl]-4-[5-(1H-indazol-6-yl)-3-methyl-2-pyridyl]-1,2,4-triazol-3-one Trifluoroacetate]: the IC50 is 36000 nM in test [1] (1 mM putrescine substrate), > 100000 nM in test [2] (0.5 mM tyramine substrate), 0.2 nM at recombinant human VAP-1 (setting [4]) and 200 nM in test [3] (1 mM benzylamine substrate).
With `NCC(Cn1ncn(Cc2ccc(C#Cc3cnc4c(c3)NCCO4)s2)c1=O)=C(F)F` [Example 166, 2-[2-(aminomethyl)-3,3-difluoro-allyl]-4-[[5-[2-(2,3-dihydro-1H-pyrido[2,3-b][1,4]oxazin-7-yl)ethynyl]-2-thienyl]methyl]-1,2,4-triazol-3-one Ditrifluoroacetate], the IC50 is > 10000 nM in test [1] (1 mM putrescine), > 10000 nM in test [2] (0.5 mM tyramine), 0.9 nM at recombinant human VAP-1 (setting [5]) and > 10000 nM in test [3] (1 mM benzylamine).
Turning to `NCC(Cn1ncn(Cc2cc3ccc(-c4ccc5c(c4)OCO5)cc3s2)c1=O)=C(F)F` [Example 201, 2-[2-(aminomethyl)-3,3-difluoro-allyl]-4-[[6-(1,3-benzodioxol-5-yl)benzothiophen-2-yl]methyl]-1,2,4-triazol-3-one Trifluoroacetate], the IC50 came to 27000 nM in test [1] (1 mM putrescine substrate), 90800 nM in test [2] (0.5 mM tyramine substrate), 2.8 nM at recombinant human VAP-1 (setting [4]) and 2000 nM in test [3] (1 mM benzylamine substrate).
Consider `CCn1cc(-c2cccc(-n3cnn(CC(CN)=C(F)F)c3=O)c2)cn1` [Example 23, 2-[2-(aminomethyl)-3,3-difluoro-allyl]-4-[3-(1-ethylpyrazol-4-yl)phenyl]-1,2,4-triazol-3-one Trifluoroacetate], for which the IC50 is 8400 nM in test [1] (1 mM putrescine), > 100000 nM in test [2] (0.5 mM tyramine), 3.1 nM on recombinant human VAP-1 (setting [5]) and > 100000 nM in test [3] (1 mM benzylamine).
As to `NCC(Cn1ncn(Cc2ccc(-c3cc(F)c4c(c3)CC(=O)N4)s2)c1=O)=C(F)F` [Example 130, 5-[5-[[1-[2-(aminomethyl)-3,3-difluoro-allyl]-5-oxo-1,2,4-triazol-4-yl]methyl]-2-thienyl]-7-fluoro-indolin-2-one Trifluoroacetate], the IC50 in test [1] (1 mM putrescine) is > 100000 nM; in test [2] (0.5 mM tyramine), > 100000 nM; on recombinant human VAP-1 (setting [5]), 0.7 nM; in test [3] (1 mM benzylamine), > 100000 nM.
As to `CCn1cc(-c2cccc(Cn3cnn(CC(CN)=C(F)F)c3=O)c2)ccc1=O` [Example 277, 5-[3-[[1-[2-(aminomethyl)-3,3-difluoro-allyl]-5-oxo-1,2,4-triazol-4-yl]methyl]phenyl]-1-ethyl-pyridin-2-one Trifluoroacetate], the IC50 in test [1] (1 mM putrescine substrate) was 1810 nM; in test [2] (0.5 mM tyramine substrate) it was > 100000 nM; on recombinant human VAP-1 (setting [4]) it was 2.5 nM; in test [3] (1 mM benzylamine substrate), 68600 nM.
In the same order, the values of `Cc1cc(-c2ccc(Cn3cnn(CC(CN)=C(F)F)c3=O)cc2)cc2c1NC(=O)CC2` [Example 269, 6-[4-[[1-[2-(aminomethyl)-3,3-difluoro-allyl]-5-oxo-1,2,4-triazol-4-yl]methyl]phenyl]-8-methyl-3,4-dihydro-1H-quinolin-2-one Trifluoroacetate] are 71000 nM, > 100000 nM, 1 nM and > 100000 nM.
In the same order, the values of `CCn1cc(-c2ccccc2Cn2cnn(CC(CN)=C(F)F)c2=O)cn1` [Example 278, 2-[2-(aminomethyl)-3,3-difluoro-allyl]-4-[[2-(1-ethylpyrazol-4-yl)phenyl]methyl]-1,2,4-triazol-3-one trifluoroacetate] are > 100000 nM, > 100000 nM, 17 nM and > 100000 nM.
`Cc1cc(-n2cnn(CC(CN)=C(F)F)c2=O)cnc1-c1ccc(C(F)(F)F)nc1` [Example 77, 2-[2-(aminomethyl)-3,3-difluoro-allyl]-4-[5-methyl-6-[6-(trifluoromethyl)-3-pyridyl]-3-pyridyl]-1,2,4-triazol-3-one Trifluoroacetate]: the concentration for half-maximal inhibition (IC50) in test [1] (1 mM putrescine) is 10 nM; in test [2] (0.5 mM tyramine), > 100000 nM; on recombinant human VAP-1 (setting [5]), 1 nM; in test [3] (1 mM benzylamine) it was 1600 nM.
In the same order, the values of `CS(=O)(=O)c1ccc(-c2cccc(-n3cnn(CC(CN)=C(F)F)c3=O)n2)cc1` [Example 46, 2-[2-(aminomethyl)-3,3-difluoro-allyl]-4-[6-(4-methylsulfonylphenyl)-2-pyridyl]-1,2,4-triazol-3-one Trifluoroacetate] are 190 nM, > 100000 nM, 0.9 nM and > 100000 nM.
In the case of `CC(C)n1cc(-c2csc(Cn3cnn(CC(CN)=C(F)F)c3=O)c2)cn1` [Example 195, 2-[2-(aminomethyl)-3,3-difluoro-allyl]-4-[[4-(1-isopropylpyrazol-4-yl)-2-thienyl]methyl]-1,2,4-triazol-3-one Trifluoroacetate], the half-maximal inhibitory concentration (IC50) was 31000 nM in test [1] (1 mM putrescine substrate), > 100000 nM in test [2] (0.5 mM tyramine substrate), 2 nM at recombinant human VAP-1 (setting [4]) and 38000 nM in test [3] (1 mM benzylamine substrate).
